Data as given in US20070082880A1 (priority 2005, published 2007).

The compounds below were run against T1, human PKCθ full length enzyme (Homo sapiens, UniProt Q04759) (assay: PKCθ IMAP Assay). Conditions: average value when one or more samples were tested; ATP 6 uM, PKCθ 1 nM.
T1 construct: human PKCθ full length enzyme (Panvera Catalog No. P2996); purchased Panvera P2996
Assay type: biochemical
Method in brief: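 Full-length human PKCθ (1 nM final) with 6 uM ATP and 100 nM 5FAM-labelled peptide, 5% DMSO, 3.0 mM DTT in reaction buffer. 25 min at room temperature; IMAP bead binding 20 min, fluorescence polarization read. Compounds 2:1 serially diluted; no-ATP and no-enzyme wells as controls.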

T1 sequence (Q04759 whole entry): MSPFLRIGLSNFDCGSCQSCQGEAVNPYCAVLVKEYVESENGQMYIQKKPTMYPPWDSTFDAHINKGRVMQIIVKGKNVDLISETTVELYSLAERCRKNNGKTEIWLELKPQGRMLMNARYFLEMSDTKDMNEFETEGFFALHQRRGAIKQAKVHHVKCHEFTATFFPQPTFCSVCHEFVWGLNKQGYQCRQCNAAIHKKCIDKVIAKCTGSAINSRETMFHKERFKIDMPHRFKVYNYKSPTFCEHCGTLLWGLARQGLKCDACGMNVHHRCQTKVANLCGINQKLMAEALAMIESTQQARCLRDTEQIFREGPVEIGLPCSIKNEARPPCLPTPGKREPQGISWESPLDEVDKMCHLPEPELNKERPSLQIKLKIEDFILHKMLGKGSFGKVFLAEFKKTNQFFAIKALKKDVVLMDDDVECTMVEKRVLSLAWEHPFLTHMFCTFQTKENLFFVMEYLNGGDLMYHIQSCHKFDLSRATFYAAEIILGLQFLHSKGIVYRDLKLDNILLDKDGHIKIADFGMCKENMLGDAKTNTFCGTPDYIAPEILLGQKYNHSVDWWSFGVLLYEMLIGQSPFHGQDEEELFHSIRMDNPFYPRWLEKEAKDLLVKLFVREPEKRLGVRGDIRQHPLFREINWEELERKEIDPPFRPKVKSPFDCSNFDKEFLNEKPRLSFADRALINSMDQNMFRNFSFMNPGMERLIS

Structure (SMILES)	IC50 [nM]
C=C(c1ccccc1)c1cc2c(Nc3ccc4[nH]ccc4c3)c(C#N)cnc2s1 [Compound 410, 4-(1H-indol-5-ylamino)-2-(1-phenylvinyl)thieno[2,3-b]pyridine-5-carbonitrile]	1050
Cc1c(Nc2c(C#N)cnc3sc(C(=O)N4CCOCC4)cc23)ccc2[nH]ccc12 [Compound 255, 4-[(4-methyl-1H-indol-5-yl)amino]-2-(morpholin-4-ylcarbonyl)thieno[2,3-b]pyridine-5-carbonitrile]	276
Cc1c(Nc2c(C#N)cnc3sc(-c4cccc(N(C)CCN(C)C)c4)cc23)ccc2[nH]ccc12 [Compound 390, 2-(3-{[2-(dimethylamino)ethyl](methyl)amino}phenyl)-4-[(4-methyl-1H-indol-5-yl)amino]thieno[2,3-b]pyridine-5-carbonitrile]	43
Cc1c(Nc2c(C#N)cnc3sc(-c4ccc(N(C)C)nc4)cc23)ccc2[nH]ccc12 [Compound 391, 2-[6-(dimethylamino)pyridin-3-yl]-4-[(4-methyl-1H-indol-5-yl)amino]thieno[2,3-b]pyridine-5-carbonitrile]	86
Cc1c(Nc2c(C#N)cnc3sc(-c4cc(CN(C)C)ccc4F)cc23)ccc2[nH]ccc12 [Compound 463, 2-{5-[(dimethylamino)methyl]-2-fluorophenyl}-4-[(4-methyl-1H-indol-5-yl)amino]thieno[2,3-b]pyridine-5-carbonitrile]	14
Cc1c(Nc2c(C#N)cnc3sc(-c4cccc(N5CCCS5(=O)=O)c4)cc23)ccc2[nH]ccc12 [Compound 519, 2-[3-(1,1-dioxidoisothiazolidin-2-yl)phenyl]-4-[(4-methyl-1H-indol-5-yl)amino]thieno[2,3-b]pyridine-5-carbonitrile]	49
Cc1c(Nc2c(C#N)cnc3sc(-c4csc(CN(C)C)c4)cc23)ccc2[nH]ccc12 [Compound 468, 2-{5-[(dimethylamino)methyl]-3-thienyl}-4-[(4-methyl-1H-indol-5-yl)amino]thieno[2,3-b]pyridine-5-carbonitrile]	16
Cc1c(Nc2c(C#N)cnc3sc(C(=O)Nc4ccccc4)cc23)ccc2[nH]ccc12 [Compound 258, 5-cyano-4-[(4-methyl-1H-indol-5-yl)amino]-N-phenylthieno[2,3-b]pyridine-2-carboxamide]	126
Cc1ccc(/C=C/c2cc3c(Nc4ccc5[nH]ccc5c4)c(C#N)cnc3s2)cc1 [Compound 406, 4-(1H-indol-5-ylamino)-2-[(E)-2-(4-methylphenyl)vinyl]thieno[2,3-b]pyridine-5-carbonitrile]	12000
COCCOc1ccc(-c2cc3c(Nc4ccc5[nH]ccc5c4C)c(C#N)cnc3s2)cc1OCCOC [Compound 513, 2-[3,4-bis(2-methoxyethoxy)phenyl]-4-[(4-methyl-1H-indol-5-yl)amino]thieno[2,3-b]pyridine-5-carbonitrile]	1610
N#Cc1cnc2sc(-c3cccc(CN4CCC(CO)CC4)c3)cc2c1Nc1ccc2[nH]ccc2c1 [Compound 174, 2-(3-{[4-(hydroxymethyl)piperidin-1-yl]methyl}phenyl)-4-(1H-indol-5-ylamino)thieno[2,3-b]pyridine-5-carbonitrile]	240
Cc1c(Nc2c(C#N)cnc3sc(-c4cncnc4)cc23)ccc2[nH]ccc12 [Compound 506, 4-[(4-methyl-1H-indol-5-yl)amino]-2-pyrimidin-5-ylthieno[2,3-b]pyridine-5-carbonitrile]	17
CN(C)c1cccc(-c2cc3c(Nc4ccc5[nH]ccc5c4)c(C#N)cnc3s2)c1 [Compound 197, 2-[3-(dimethylamino)phenyl]-4-(1H-indol-5-ylamino)thieno[2,3-b]pyridine-5-carbonitrile]	480
CON(C)C(=O)c1ccc(-c2cc3c(Nc4ccc5[nH]ccc5c4C)c(C#N)cnc3s2)cc1 [Compound 357, 4-{5-cyano-4-[(4-methyl-1H-indol-5-yl)amino]thieno[2,3-b]pyridin-2-yl}-N-methoxy-N-methylbenzamide]	48
CS(=O)(=O)Nc1ccccc1-c1cc2c(Nc3ccc4[nH]ccc4c3)c(C#N)cnc2s1 [Compound 370, N-{2-[5-cyano-4-(1H-indol-5-ylamino)thieno[2,3-b]pyridin-2-yl]phenyl}methanesulfonamide]	1010
CON(C)C(=O)c1cccc(-c2cc3c(Nc4ccc5[nH]ccc5c4)c(C#N)cnc3s2)c1 [Compound 344, 3-[5-cyano-4-(1H-indol-5-ylamino)thieno[2,3-b]pyridin-2-yl]-N-methoxy-N-methylbenzamide]	818
N#Cc1cnc2sc(-c3cccc(CN4CCN(CCOCCO)CC4)c3)cc2c1Nc1ccc2[nH]ccc2c1 [Compound 181, 2-[3-({4-[2-(2-hydroxyethoxy)ethyl]piperazin-1-yl}methyl)phenyl]-4-(1H-indol-5-ylamino)thieno[2,3-b]pyridine-5-carbonitrile]	180

Results, then the compound that gave them:

IC50 [nM]	Structure (SMILES)
14	Cc1c(Nc2c(C#N)cnc3sc(-c4ccc(CN(C)C)cc4)cc23)ccc2[nH]ccc12 [Compound 113, 2-{4-[(dimethylamino)methyl]phenyl}-4-[(4-methyl-1H-indol-5-yl)amino]thieno[2,3-b]pyridine-5-carbonitrile]
40000	N#Cc1cnc2sc(-c3ccc(S(=O)(=O)NC4CCCCC4)cc3)cc2c1Nc1ccc2[nH]ccc2c1 [Compound 233, 4-[5-cyano-4-(1H-indol-5-ylamino)thieno[2,3-b]pyridin-2-yl]-N-cyclohexylbenzenesulfonamide]
16	Cc1c(Nc2c(C#N)cnc3sc(-c4cccc(C=O)c4)cc23)ccc2[nH]ccc12 [Compound 201, 2-(3-formylphenyl)-4-[(4-methyl-1H-indol-5-yl)amino]thieno[2,3-b]pyridine-5-carbonitrile]
51	N#Cc1cnc2sc(-c3cscc3C=O)cc2c1Nc1ccc2[nH]ccc2c1 [Compound 336, 2-(4-formyl-3-thienyl)-4-(1H-indol-5-ylamino)thieno[2,3-b]pyridine-5-carbonitrile]
23	CCOC(=O)/C=C/c1cc2c(Nc3ccc4[nH]ccc4c3C)c(C#N)cnc2s1 [Compound 282, ethyl (2E)-3-{5-cyano-4-[(4-methyl-1H-indol-5-yl)amino]thieno[2,3-b]pyridin-2-yl}acrylate]
334	Cc1c(Nc2c(C#N)cnc3sc(C(=O)N4CCN(C)CC4)cc23)ccc2[nH]ccc12 [Compound 256, 4-[(4-methyl-1H-indol-5-yl)amino]-2-[(4-methylpiperazin-1-yl)carbonyl]thieno[2,3-b]pyridine-5-carbonitrile]
430	N#Cc1cnc2sc(-c3cccc(CNCCN4CCOCC4)c3)cc2c1Nc1ccc2[nH]ccc2c1 [Compound 170, 4-(1H-indol-5-ylamino)-2-(3-{[(2-morpholin-4-ylethyl)amino]methyl}phenyl)thieno[2,3-b]pyridine-5-carbonitrile]
70	Cc1c(Nc2c(C#N)cnc3sc(C4CCNCC4)cc23)ccc2[nH]ccc12 [Compound 478, 4-[(4-methyl-1H-indol-5-yl)amino]-2-piperidin-4-ylthieno[2,3-b]pyridine-5-carbonitrile]
438	COC(=O)c1cc2c(Nc3ccc4[nH]ccc4c3)c(C#N)cnc2s1 [Compound 246, methyl 5-cyano-4-(1H-indol-5-ylamino)thieno[2,3-b]pyridine-2-carboxylate]
2	COc1ccc(CNCCO)cc1-c1cc2c(Nc3ccc4[nH]ccc4c3C)c(C#N)cnc2s1 [Compound 517, 2-(5-{[(2-hydroxyethyl)amino]methyl}-2-methoxyphenyl)-4-[(4-methyl-1H-indol-5-yl)amino]thieno[2,3-b]pyridine-5-carbonitrile]
69	N#Cc1cnc2sc(I)cc2c1Nc1cnc2[nH]ccc2c1Cl [Compound 507, 4-[(4-chloro-1H-pyrrolo[2,3-b]pyridin-5-yl)amino]-2-iodothieno[2,3-b]pyridine-5-carbonitrile]
6	Cc1c(Nc2c(C#N)cnc3sc(-c4cccc(S(N)(=O)=O)c4)cc23)ccc2[nH]ccc12 [Compound 240, 3-{5-cyano-4-[(4-methyl-1H-indol-5-yl)amino]thieno[2,3-b]pyridin-2-yl}benzenesulfonamide]
34	Cc1c(Nc2c(C#N)cnc3sc(-c4cccc(S(N)(=O)=O)c4)c(C)c23)ccc2[nH]ccc12 [Compound 427, 3-{5-cyano-3-methyl-4-[(4-methyl-1H-indol-5-yl)amino]thieno[2,3-b]pyridin-2-yl}benzenesulfonamide]
18	Cc1c(Nc2c(C#N)cnc3sc(-c4cccc(C(=O)N(C)CCN(C)C)c4)cc23)ccc2[nH]ccc12 [Compound 348, 3-{5-cyano-4-[(4-methyl-1H-indol-5-yl)amino]thieno[2,3-b]pyridin-2-yl}-N-[2-(dimethylamino)ethyl]-N-methylbenzamide]
23500	N#Cc1cnc2sc(/C=C/c3ccc(C(F)(F)F)cc3)cc2c1Nc1ccc2[nH]ccc2c1 [Compound 408, 4-(1H-indol-5-ylamino)-2-{(E)-2-[4-(trifluoromethyl)phenyl]vinyl}thieno[2,3-b]pyridine-5-carbonitrile]
2	CCN(CC)C(=O)/C=C/c1cc2c(Nc3ccc4[nH]ccc4c3C)c(C#N)cnc2s1 [Compound 306, (2E)-3-{5-cyano-4-[(4-methyl-1H-indol-5-yl)amino]thieno[2,3-b]pyridin-2-yl}-N,N-diethylacrylamide]
56	Cc1c(Nc2c(C#N)cnc3sc(/C=C/CN4CCOCC4)cc23)ccc2[nH]ccc12 [Compound 275, 4-[(4-methyl-1H-indol-5-yl)amino]-2-[(1E)-3-morpholin-4-ylprop-1-en-1-yl]thieno[2,3-b]pyridine-5-carbonitrile]
> 25000	Cc1c(Nc2c(C#N)cnc3sc(-c4cnc(N(C)C)nc4)cc23)ccc2[nH]ccc12 [Compound 331, 2-[2-(dimethylamino)pyrimidin-5-yl]-4-[(4-methyl-1H-indol-5-yl)amino]thieno[2,3-b]pyridine-5-carbonitrile]
